The data set is described as follows: PAMPA test (skin permeability model). The note with it: 70% silicone oil-30% IPM membrane, 7 h incubation, 100 μM in 5% DMSO phosphate buffer pH 7, triplicate mean. The protocol: The study was performed in triplicate and the results are presented as mean values. After the PAMPA tests was performed, a HPLC method was used to measure the concentrations of the investigated corticosteroids: the initial concentration–CD(0) in the starting solution, the residual concentration–CD(t) in the donor compartment (7 h after incubation) and the transferred concentration–CA(t) in the acceptor compartment (7 h after incubation). The assay was performed using the previously described HPLC method with mobile phase modification for determination of standard corticosteroids. The mobile phase modification was introduced to achieve complete separation standard corticosteroids peak from DMSO peak, which was used as cosolvent. DMSO was used as cosolvent with the aim of increasing the corticosteroid C-21 esters’ solubility. DMSO is one of the earliest and most widely studied penetration enhancers for transdermal drug delivery systems.
On the basis of the initial (100 μM) and calculated residual and transferred concentrations according to peak area comparison at zero time t0, the retention factors–R and permeability coefficients–logPe of investigated corticosteroids were obtained.
Phosphate buffer (pH = 7) was prepared by dissolving NaH2PO4·H2O (1.167 g) and Na2HPO4·7H2O (3.093 g) in water (1000 mL) with the fixed total concentration of 20 mM. The 5% DMSO solution were prepared dissolving DMSO in phosphate buffer. The corticosteroid solutions were prepared dissolving the investigated corticosteroid standards as well as new synthesized corticosteroid C-21 esters in 5% DMSO solution. […] An aliquot of previously prepared mixture (3.5 mL, 7 mL silicone oil and 3 mL IPM) was transferred into a 10 mL volumetric flask, dissolved and fill up to mark with n-hexane.
Permeation experiments were carried out in hydrophobic PVDF 96-well filter plates (Millipore, Molsheim, France). […] Next, in each well of acceptor plate, 5% DMSO solution (400 μL) was transferred with an automatic pipette and covered by the donor plate, creating a PAMPA sandwich. In each well of the donor plate solutions of the tested corticosteroid in 5% DMSO solution (100 μM, 300 μL) was transferred by the use of an automatic pipette. Each substance was measured in triplicate at iso-pH conditions (the same pH value in donor and receptor compartment). The donor plate was covered to prevent evaporation and the whole system set up to interact with the vibratory mixer. After 7 h, PAMPA sandwich was removed from the mixer and vibration, and using the HPLC method the concentration of the investigated substances in the donor and receptor compartments were determined. The HPLC method used was as previously described but with some necessary modifications. A mobile phase of methanol–water (75:25 v/v) was used for analysis of corticosteroid C-21 esters, while the mobile phase methanol–water (50:50 v/v) was used for the analysis of unesterified corticosteroids to increase their retention time and prevent overlapping with the DMSO peak. Other HPLC parameters were as previously described. The concentrations of each tested corticosteroid in the appropriate time interval in the donor and acceptor compartments were calculated using the method of comparing the peak area of the initial concentration at zero time t0.
The values of permeability coefficients–logPe and retention factors–R of examined corticosteroids were calculated using equations (2) and (3). The retention factor, R can be defined as the mole fraction retained in the membrane and in the microplates (i.e., filters and plate materials): [drawing 1] (2) where CA(t)/CD(0) represents the amount of compound that reached the acceptor compartment after incubation time t (for VA = VD): […]
For orientation: PAMPA measures passive passage across an artificial lipid membrane.
For `CCOC(CC)C(=O)OCC(=O)C1(O)C(C)CC2C3CCC4=CC(=O)C=CC4(C)C3(F)C(O)CC21C` (centres unmarked) [DEX-21-EB, dexamethasone 21-(2′-ethoxybutyrate)], the “permeability coefficient log Pe” value is listed as −4.58 ± 0.13 cm/s, the “permeation parameter CA(t)/CD(0)” value was found to be 33.4 ± 1.2% and the “retention factor R (membrane retention)” value worked out at 11.3 ± 3.5%.

Turning to `CCOC(C)C(=O)OCC(=O)C1(O)C(C)CC2C3CCC4=CC(=O)C=CC4(C)C3(F)C(O)CC21C` (centres unmarked) [DEX-21-EP, dexamethasone 21-(2′-ethoxypropionate)], the “permeation parameter CA(t)/CD(0)” value was 31.6 ± 0.6% and the “retention factor R (membrane retention)” value is given as less than 1%.

Take `CCC(OC)C(=O)OCC(=O)C1(O)C(C)CC2C3CCC4=CC(=O)C=CC4(C)C3(F)C(O)CC21C` (centres unmarked) [DEX-21-MB, dexamethasone 21-(2′-methoxybutyrate)]: the “permeability coefficient log Pe” value was −4.58 ± 0.15 cm/s, the “permeation parameter CA(t)/CD(0)” value turned out to be 37.4 ± 1.5% and the “retention factor R (membrane retention)” value is on record as less than 1%.

Consider `COC(C)C(=O)OCC(=O)C1(O)C(C)CC2C3CCC4=CC(=O)C=CC4(C)C3(F)C(O)CC21C` (centres unmarked) [DEX-21-MP, dexamethasone 21-(2′-methoxypropionate)], for which the “permeability coefficient log Pe” value was −4.88 ± 0.17 cm/s, the “permeation parameter CA(t)/CD(0)” value turned out to be 23.8 ± 1.5% and the “retention factor R (membrane retention)” value is recorded as less than 1%.

For the molecule `CC(Oc1ccccc1)C(=O)OCC(=O)C1(O)C(C)CC2C3CCC4=CC(=O)C=CC4(C)C3(F)C(O)CC21C` (centres unmarked) [DEX-21-PhP, dexamethasone 21-(2′-phenoxypropionate)], the “permeation parameter CA(t)/CD(0)” value came to 4.1 ± 1.1% and the “retention factor R (membrane retention)” value was determined as 86.5 ± 4.2%.

Take `CCC(OC)C(=O)OCC(=O)C12OC(C)(C)OC1CC1C3CC(F)C4=CC(=O)C=CC4(C)C3(F)C(O)CC12C` (centres unmarked) [FA-21-MB, fluocinolone acetonide 21-(2′-methoxybutyrate)]: the “permeability coefficient log Pe” value was −4.65 ± 0.12 cm/s, the “permeation parameter CA(t)/CD(0)” value amounted to 18.0 ± 1.3% and the “retention factor R (membrane retention)” value is reported as 47.2 ± 3.4%.

Regarding `C[C@]12CCC(=O)C=C1CC[C@@H]1[C@@H]2[C@@H](O)C[C@@]2(C)[C@H]1CC[C@]2(O)C(=O)CO` [H, hydrocortisone, reference compound], the “retention factor R (membrane retention)” value amounted to 1.5 ± 0.9%.

Take `CCOC(CC)C(=O)OCC(=O)C12OC(C)(C)OC1CC1C3CCC4=CC(=O)C=CC4(C)C3(F)C(O)CC12C` (centres unmarked) [TA-21-EB, triamcinolone acetonide 21-(2′-ethoxybutyrate)]: the “permeability coefficient log Pe” value is listed as −4.87 ± 0.21 cm/s, the “permeation parameter CA(t)/CD(0)” value was 7.3 ± 1.6% and the “retention factor R (membrane retention)” value is on record as 70.1 ± 3.4%.

For `CCOC(C)C(=O)OCC(=O)C12OC(C)(C)OC1CC1C3CCC4=CC(=O)C=CC4(C)C3(F)C(O)CC12C` (centres unmarked) [TA-21-EP, triamcinolone acetonide 21-(2′-ethoxypropionate)], the “permeability coefficient log Pe” value is −4.66 ± 0.15 cm/s, the “permeation parameter CA(t)/CD(0)” value was determined as 23.0 ± 1.8% and the “retention factor R (membrane retention)” value is listed as 32.4 ± 1.7%.

Take `CCC(OC)C(=O)OCC(=O)C12OC(C)(C)OC1CC1C3CCC4=CC(=O)C=CC4(C)C3(F)C(O)CC12C` (centres unmarked) [TA-21-MB, triamcinolone acetonide 21-(2′-methoxybutyrate)]: the “permeability coefficient log Pe” value is −4.85 ± 0.23 cm/s, the “permeation parameter CA(t)/CD(0)” value worked out at 16.9 ± 2.0% and the “retention factor R (membrane retention)” value amounted to 39.3 ± 4.1%.

For the molecule `COC(C)C(=O)OCC(=O)C12OC(C)(C)OC1CC1C3CCC4=CC(=O)C=CC4(C)C3(F)C(O)CC12C` (centres unmarked) [TA-21-MP, triamcinolone acetonide 21-(2′-methoxypropionate)], the “permeability coefficient log Pe” value is recorded as −4.45 ± 0.16 cm/s, the “permeation parameter CA(t)/CD(0)” value is recorded as 38.1 ± 1.6% and the “retention factor R (membrane retention)” value was 13.5 ± 4.1%.

Source of the values: paper PMC6268546, “A PAMPA Assay as Fast Predictive Model of Passive Human Skin Permeability of New Synthesized Corticosteroid C-21 Esters” (Molecules, 2012).
